# Test results published in ChEMBL document CHEMBL1126347, “Competitive NMDA antagonist that base their activity on a unique conformational effect” (Bioorg Med Chem Lett, 1992).
# Target: Glutamate NMDA receptor
# Assay: The compound was tested for NMDA antagonist activity against [3H]-CGS- 19755 binding in rat cortex preparation
row,Ki [nM],SMILES
1,40,"O=C(O)[C@@H]1C[C@H](CP(=O)(O)O)CCN1 (single isomer, unassigned) [SELFOTEL]"
2,64,O=C(CP(=O)(O)O)[C@H]1CCCN[C@H]1C(=O)O (stereo in doubt; 14)
3,69,O=C(CP(=O)(O)O)[C@H]1CCCN[C@H]1C(=O)O (stereo in doubt; 1)
4,> 1000,O=C(CP(=O)(O)O)[C@H]1CCCN[C@H]1C(=O)O (stereo in doubt; 15)
5,106,O=C(O)[C@@H]1NCCC[C@@H]1C(O)CP(=O)(O)O (stereo not given in full)
